# Reference: the supplement of paper PMC10307832
# Legend:
# Assay in all cases: relative viability (nuclei count vs DMSO), 5 days (fraction); higher = more cells survive
# Carfilzomib + Bortezomib = compound: CC(C)C[C@H](NC(=O)[C@H](CCc1ccccc1)NC(=O)CN1CCOCC1)C(=O)N[C@@H](Cc1ccccc1)C(=O)N[C@@H](CC(C)C)C(=O)[C@@]1(C)CO1 [Carfilzomib] + CC(C)C[C@H](NC(=O)[C@H](Cc1ccccc1)NC(=O)c1cnccn1)B(O)O [Bortezomib] (partner 0.002 µM)
# How it was run: (§1)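 Nuclei were stained with Hoechst during a one-step fixation (final 0.05% Triton X-100, 1% formaldehyde, 1 ug/ml Hoechst) carried out 5 days after dosing, then counted on 4× images. The cells, lung cancer lines in 1536-well plates, had been dosed by pin tool the day after seeding with one drug alone or a fixed anchor-drug dose plus five library-drug doses (not always all listed) in √10 steps. Relative viability is the nuclei count in treated wells divided by that in vehicle wells, and each value is the median of duplicate plates.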
# Carfilzomib + Alpelisib = compound: CC(C)C[C@H](NC(=O)[C@H](CCc1ccccc1)NC(=O)CN1CCOCC1)C(=O)N[C@@H](Cc1ccccc1)C(=O)N[C@@H](CC(C)C)C(=O)[C@@]1(C)CO1 [Carfilzomib] + Cc1nc(NC(=O)N2CCC[C@H]2C(N)=O)sc1-c1ccnc(C(C)(C)C(F)(F)F)c1 [Alpelisib] (partner 2 µM)
# How it was run: as §1
# Crizotinib + Lapatinib = compound: C[C@@H](Oc1cc(-c2cnn(C3CCNCC3)c2)cnc1N)c1c(Cl)ccc(F)c1Cl [Crizotinib] + CS(=O)(=O)CCNCc1ccc(-c2ccc3ncnc(Nc4ccc(OCc5cccc(F)c5)c(Cl)c4)c3c2)o1 [Lapatinib] (partner 2 µM)
# How it was run: as §1
# Olaparib + AZD7762 = compound: O=C(c1cc(Cc2n[nH]c(=O)c3ccccc23)ccc1F)N1CCN(C(=O)C2CC2)CC1 [Olaparib] + NC(=O)Nc1cc(-c2cccc(F)c2)sc1C(=O)N[C@H]1CCCNC1 [AZD7762] (partner 0.2 µM)
# How it was run: as §1
Cell Line,relative viability (Carfilzomib + Bortezomib; first compound 0.001 µM),relative viability (Carfilzomib + Bortezomib; first compound 0.003162 µM),relative viability (Carfilzomib + Bortezomib; first compound 0.01 µM),relative viability (Carfilzomib + Bortezomib; first compound 0.03162 µM),relative viability (Carfilzomib + Bortezomib; first compound 0.1 µM),relative viability (Carfilzomib + Alpelisib; first compound 0.001 µM),relative viability (Carfilzomib + Alpelisib; first compound 0.003162 µM),relative viability (Carfilzomib + Alpelisib; first compound 0.01 µM),relative viability (Carfilzomib + Alpelisib; first compound 0.03162 µM),relative viability (Carfilzomib + Alpelisib; first compound 0.1 µM),relative viability (Crizotinib + Lapatinib; first compound 0.01 µM),relative viability (Crizotinib + Lapatinib; first compound 0.03162 µM),relative viability (Crizotinib + Lapatinib; first compound 0.1 µM),relative viability (Crizotinib + Lapatinib; first compound 1 µM),relative viability (Olaparib + AZD7762; first compound 0.08 µM),relative viability (Olaparib + AZD7762; first compound 0.253 µM),relative viability (Olaparib + AZD7762; first compound 2.53 µM),relative viability (Olaparib + AZD7762; first compound 8 µM),relative viability (Crizotinib + Lapatinib; first compound 0.3162 µM)
HCC-366,0.891,0.966,1.07,0.196,0.0175,0.402,0.518,0.413,0.285,0.0174,1,1.06,1.05,1.11,0.258,0.196,0.168,0.0718,
HCC-827,1.01,1.01,1.06,0.677,0.422,0.943,0.948,0.945,0.934,0.357,0.153,0.211,0.178,0.18,0.259,0.214,0.239,0.224,0.175
HOP-62,0.531,0.475,0.425,0.0851,0.0746,0.935,1.12,0.986,0.118,0.0839,0.796,1.15,1.01,1,0.43,0.614,0.463,0.155,0.84
LC-2-ad,0.947,1.08,0.482,0.132,0.0828,0.915,0.923,0.956,0.106,0.109,0.866,0.981,1.03,0.54,0.89,0.76,0.851,0.727,
LCLC-97TM1,0.292,0.714,0.268,0.0483,0.0702,0.307,0.258,0.266,0.101,0.126,1.08,0.927,1.04,1.12,0.294,0.202,,0.168,
LOU-NH91,0.438,0.49,0.362,0.26,0.263,0.702,0.742,0.662,0.307,0.267,0.738,0.731,0.677,0.712,0.838,0.739,0.789,0.761,0.57
LU99A,1.09,1.31,1.05,0.459,0.216,0.503,0.543,0.49,0.198,0.148,0.824,1.02,0.976,0.928,0.337,0.213,0.204,0.125,1.03
LXF-289,1.03,0.957,0.653,0.0711,0.0774,1.06,1.07,0.979,0.0883,0.0581,0.902,0.886,0.925,0.872,1.27,1.02,1.28,1.17,0.779
NCI-H23,1.01,0.92,0.445,0.165,0.125,0.741,0.84,0.857,0.207,0.112,1.12,1.03,1.09,1.18,0.3,0.269,0.269,0.147,
NCI-H322M,1.27,1.31,1.35,1.21,0.66,0.796,0.757,0.365,0.748,0.509,0.478,0.642,0.616,0.701,0.724,0.608,0.521,0.496,0.584
NCI-H460,1.06,1.12,1,0.0827,0.0107,0.556,0.462,0.538,0.101,0.0126,0.977,1.24,0.983,0.982,0.595,0.513,0.357,0.126,0.94
NCI-H596,0.885,0.987,0.839,0.483,0.2,0.467,0.566,0.464,0.276,0.194,1.02,1.12,1.02,1.24,1.19,0.981,1.04,0.703,1.02
NCI-H647,0.674,0.72,0.154,0.0243,0.0299,1.14,1.19,0.71,0.025,0.0242,,1.1,1.23,1.07,0.508,0.379,0.343,0.156,0.792
NCI-H650,0.587,0.701,0.619,0.145,0.157,1.09,1.3,1.21,1.09,0.164,0.833,0.788,0.909,0.891,1.05,0.956,0.826,0.927,0.803
NCI-H727,0.72,0.77,0.795,0.3,0.147,0.683,0.542,0.655,0.421,0.0733,0.837,0.749,1.15,0.888,0.509,0.706,0.626,0.676,0.729
NCI-H838,0.772,0.838,0.624,0.179,0.114,0.979,1.09,1.06,0.992,0.122,0.689,1.22,,0.987,1.09,0.949,0.912,0.801,0.996
NCI-H1355,1.07,1.1,1.15,0.315,0.157,0.753,0.767,0.737,0.584,0.139,,1.04,1.07,0.986,0.74,0.749,0.714,0.696,0.863

Cell Line,relative viability (Carfilzomib + Bortezomib; first compound 0.001 µM),relative viability (Carfilzomib + Bortezomib; first compound 0.003162 µM),relative viability (Carfilzomib + Bortezomib; first compound 0.01 µM),relative viability (Carfilzomib + Bortezomib; first compound 0.03162 µM),relative viability (Carfilzomib + Bortezomib; first compound 0.1 µM),relative viability (Carfilzomib + Alpelisib; first compound 0.001 µM),relative viability (Carfilzomib + Alpelisib; first compound 0.003162 µM),relative viability (Carfilzomib + Alpelisib; first compound 0.01 µM),relative viability (Carfilzomib + Alpelisib; first compound 0.03162 µM),relative viability (Carfilzomib + Alpelisib; first compound 0.1 µM),relative viability (Crizotinib + Lapatinib; first compound 0.01 µM),relative viability (Crizotinib + Lapatinib; first compound 0.03162 µM),relative viability (Crizotinib + Lapatinib; first compound 0.1 µM),relative viability (Crizotinib + Lapatinib; first compound 1 µM),relative viability (Olaparib + AZD7762; first compound 0.08 µM),relative viability (Olaparib + AZD7762; first compound 0.253 µM),relative viability (Olaparib + AZD7762; first compound 2.53 µM),relative viability (Olaparib + AZD7762; first compound 8 µM),relative viability (Crizotinib + Lapatinib; first compound 0.3162 µM)
NCI-H1437,0.473,0.5,0.437,0.176,0.13,0.982,1.01,0.943,0.54,0.101,0.768,0.839,0.816,0.928,1.19,1.11,1.15,0.997,0.711
NCI-H1651,0.895,0.836,0.647,0.292,0.134,0.927,0.881,0.725,0.0951,0.0668,0.642,0.782,0.722,0.892,0.486,0.424,0.363,0.184,0.893
NCI-H1666,0.987,0.888,0.771,0.188,0.218,1.06,1.05,1.03,0.3,0.231,0.618,0.678,0.587,0.682,0.892,0.725,0.781,0.835,0.657
NCI-H1703,0.216,0.167,0.156,0.0967,0.129,0.246,0.334,0.126,0.112,0.122,1.23,1.18,1.07,1.02,0.119,0.193,0.143,0.141,1.17
NCI-H1734,0.848,1.1,0.484,0.147,0.146,0.695,0.832,0.69,0.367,0.165,1.03,1.05,1,1.04,0.611,0.49,0.441,0.333,
NCI-H1755,0.929,1.02,0.685,0.282,0.221,0.917,0.948,0.925,0.601,0.202,1,1.04,1.07,1.03,0.452,0.451,0.489,0.399,0.938
NCI-H1792,0.962,1,0.919,0.979,0.559,0.648,0.742,0.674,0.756,0.386,0.827,0.918,0.958,0.842,0.774,0.559,0.496,0.254,0.78
NCI-H1915,0.906,0.849,1.03,0.142,0.0581,1.05,1.1,1.04,0.689,0.0648,0.902,0.95,1.01,0.969,0.544,0.561,0.404,0.245,
NCI-H1975,0.255,0.266,0.137,0.122,0.13,0.584,0.646,0.281,0.117,0.126,0.719,1.01,0.971,0.869,0.793,0.727,0.705,0.765,0.798
NCI-H1993,0.912,1.18,1.1,0.453,0.425,0.717,0.654,0.765,0.521,0.483,0.687,0.843,0.781,0.707,0.748,0.736,1.04,0.824,0.681
NCI-H2085,1.03,0.923,0.773,0.451,0.313,0.978,1.1,0.908,0.43,0.282,0.724,0.899,0.785,0.715,1.1,0.875,0.962,0.881,0.709
NCI-H2087,0.803,0.793,0.202,0.0909,0.101,1.13,1.25,0.83,0.0689,0.0648,0.936,1.07,0.915,1.06,1.43,1.15,1.3,0.959,0.557
NCI-H2126,1.11,1.12,1.1,0.945,0.554,0.683,0.787,0.792,0.774,0.563,0.701,0.763,0.765,0.727,1.08,0.942,0.959,0.948,0.763
NCI-H2347,0.611,0.89,0.698,0.361,0.268,0.96,1.18,1.05,0.875,0.345,0.982,0.902,0.906,0.933,0.905,0.749,0.665,0.549,0.888
NCI-H2405,0.926,1.01,1.06,0.15,0.202,,1.13,0.777,0.312,0.168,1.05,0.975,0.999,,0.86,0.741,0.632,0.636,0.952
NCI-H3122,1.04,0.996,1.05,0.855,0.814,0.748,0.847,0.748,0.959,0.69,0.985,0.891,0.951,0.763,1.03,0.945,0.908,0.559,0.962
